Results taken from PMC7423715 (International journal of pharmaceutics, 2020).
Where a name gives a salt, the structure may show the parent alone. Bridge positions count the residues as written; N and C are the ends. Square brackets hold non-standard residues; d marks the D form. Peptide text beside a SMILES is read from it. * marks the point of attachment. X1 = CC[C@H](C)CCCCC(=O)*; Dab = NCC[C@H](N)C(=O)O

Test system: Calu-3 cell monolayer
Test: Transepithelial transport across the Calu-3 cell monolayer
Conditions: colistin transport, Calu-3 monolayer, HBSS, 4 hours, LC-MS/MS, n = 4, Fig. 6C

SMILES: CC[C@H](C)CCCCC(=O)N[C@@H](CCN)C(=O)N[C@H](C(=O)N[C@@H](CCN)C(=O)N[C@H]1CCNC(=O)[C@H]([C@@H](C)O)NC(=O)[C@H](CCN)NC(=O)[C@H](CCN)NC(=O)[C@H](CC(C)C)NC(=O)[C@@H](CC(C)C)NC(=O)[C@H](CCN)NC1=O)[C@@H](C)O [colistin, colistin sulfate] (X1-[Dab]T[Dab][Dab][Dab][dL]L[Dab][Dab]T; lactam 4-C)
- drug retained in the donor compartment: more than 90%
